The target of one experiment is T1, human recombinant DRD3 (Homo sapiens, UniProt P35462).
T1 construct: host or cells: CHO cells
Put plainly: [3H]-methylspiperone binding inhibition, human recombinant DRD3 in CHO cells (Eurofins Discovery assay #48). Conditions: for inhibition at 10 µM: 10 μM competitor, single concentration, mean of two independent experiments, CHO cells, read-out: percentage of inhibition of [3H]-methylspiperone binding; for ligand efficiency (LE): SpaceDock hits, LE as in ref 53; for Ki: from six concentrations dose-response curves, read-out: inhibition constant (Ki). On the procedure: Fig. S8. Binding of six SpaceDock hits to the human dopamine D3 receptor, expressed by the
percentage of inhibition of [3H]‐methylspiperone binding to human recombinant DRD3 in CHO cells
(Eurofins‐Discovery assay #48). Inhibition constants (Ki) were determined from six concentrations

For another experiment, the target named is human DRD3. To be noted: cited from earlier work.

Where two headings read alike, the source gives them in different places.

T1 sequence (P35462 whole entry): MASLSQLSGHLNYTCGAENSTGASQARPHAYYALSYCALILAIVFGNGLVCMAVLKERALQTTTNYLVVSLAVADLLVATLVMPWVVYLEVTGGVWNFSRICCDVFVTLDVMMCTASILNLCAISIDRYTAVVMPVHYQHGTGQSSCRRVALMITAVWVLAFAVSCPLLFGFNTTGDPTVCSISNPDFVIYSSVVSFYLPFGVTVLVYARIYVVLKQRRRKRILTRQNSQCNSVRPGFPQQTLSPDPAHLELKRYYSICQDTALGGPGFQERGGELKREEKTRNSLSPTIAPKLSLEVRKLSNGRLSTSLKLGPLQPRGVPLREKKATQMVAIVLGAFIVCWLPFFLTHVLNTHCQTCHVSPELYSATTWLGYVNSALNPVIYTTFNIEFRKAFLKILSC

`CCc1cc2c(c(C(=O)NCCN(C(C)C)C3CC3)c1)OCC2` [#1]: on human recombinant DRD3, the inhibition (usually the change of the read-out against control, counted positive when it falls) at 10 µM worked out at 95.1 ± 1.1%; the “ligand efficiency (LE)” value is recorded as 0.40; the inhibition constant Ki (commonly a measure of affinity in units of concentration, obtained from inhibition or displacement) amounted to 360 nM.
In the case of `CCCN(CCC)CCNC(=O)c1cccc2c(C)c(C)[nH]c12` [#25], on human recombinant DRD3, the inhibition at 10 µM turned out to be 90.7 ± 1.6%, the “ligand efficiency (LE)” value is listed as 0.36 and the Ki worked out at 1400 nM.
As to `CCc1ccc2occ(C(=O)NCC3CCCN(CC)C3)c2c1` (stereo not drawn) [#33], the inhibition at 10 µM at human recombinant DRD3 came out at 34.3 ± 1.3%.
Same read-out and setting: with `CCCN(CCC)CCNC(=O)C1CCc2cnn(C)c2C1` (stereo not drawn) [#35] the figure was 13.7 ± 1.2%; with `CC(C)N(CCNC(=O)c1cn(C)nc1C1CCOC1)C1CC1` (stereo not drawn) [#36], 21.3 ± 0.4%.
Regarding `CCCN1CCCC1CNC(=O)c1c[nH]cc1-c1ccccc1` (stereo not drawn) [#66], at human recombinant DRD3, the inhibition at 10 µM worked out at 88.2 ± 0.8%, the “ligand efficiency (LE)” value turned out to be 0.40 and the Ki is 320 nM.
For the compound `CCc1oc(C)cc1C(=O)NCC1CCN(CC)CC1` [#97], the inhibition at 10 µM at human recombinant DRD3 was 13.6 ± 0.2%.
With `CCCN(CCNC(=O)c1cccc2sccc12)C(C)C` [#107], at human recombinant DRD3, the inhibition at 10 µM stood at 80.2 ± 0.5%, the “ligand efficiency (LE)” value is reported as 0.39 and the Ki worked out at 1570 nM.
As for `CCN(CC)CC(CC)(CC)NC(=O)c1cccc2nc(C)sc12` [#110], on human recombinant DRD3, the inhibition at 10 µM is -5.1 ± 4.5%.
In the case of `CCCN(CC)CCNC(=O)c1cc(Br)cc2[nH]cnc12` [#142], at human recombinant DRD3, the inhibition at 10 µM was determined as 88.7 ± 0.1%, the “ligand efficiency (LE)” value amounted to 0.43 and the Ki amounted to 401 nM.
Regarding `CCCN(CC)CCNC(=O)c1nn(C)c2c1CSCC2` [#161], at human recombinant DRD3, the inhibition at 10 µM was 72.6 ± 0.9%, the “ligand efficiency (LE)” value is recorded as 0.39 and the Ki stood at 1650 nM.
As to `Cc1nc2sccn2c1C(=O)NCC1CCCCC1N1CCCC1` (stereo not drawn) [#215], the inhibition at 10 µM on human recombinant DRD3 is 4.7 ± 1.8%.
As for `CCN1CCC[C@H]1CNC(=O)c1c(-c2ccccc2)noc1C` [#239], at human recombinant DRD3, the inhibition at 10 µM worked out at 3.5 ± 3.1%.
For `Cc1ccc(C(CNC(=O)c2cc(C)nc3c2cnn3C)N2CCCC2)cc1` (stereo not drawn) [#252], the inhibition at 10 µM on human recombinant DRD3 came to 26.2 ± 0.8%.
Turning to `CCCN(CCC)CCNC(=O)c1cccc2oc(C)nc12` [#256], the inhibition at 10 µM at human recombinant DRD3 was found to be 44.4 ± 0.8%.
For `CCN(CC)CCNC(=O)c1cc(Cl)c(N)cc1OC` [CHEMBL86], the inhibition constant Ki on human DRD3 (closest ChEMBL ligand) was 23 nM.
In the case of `COc1cc2c(c(C(=O)NC[C@H]3CCCN3Cc3ccccc3)c1)OCC2` [CHEMBL148352], on human DRD3 (closest ChEMBL ligand), the inhibition constant Ki was 120 nM.
With `Cc1ccc(C)c(C(=O)NCCCCN2CCN(c3cc(C)ccc3C)CC2)c1` [CHEMBL1258495], on human DRD3 (closest ChEMBL ligand), the inhibition constant (Ki) is 28 nM.
As for `C#CC1CCC(N(CCC)CCCCNC(=O)c2ccc(OCCCc3cnn(CCCC)n3)c(OC)c2)CC1` (stereo not drawn) [CHEMBL2397478], on human DRD3 (closest ChEMBL ligand), the Ki was 1 nM.
In the case of `CCCN(CCCCNC(=O)c1cccc2cc[nH]c12)CC1CC1c1cccc(F)c1` (stereo not drawn) [CHEMBL4590839], the Ki on human DRD3 (closest ChEMBL ligand) is 18.8 nM.
`CCc1cc(Cl)c(OC)c(C(=O)NC[C@@H]2CCCN2CC)c1O` [Eticlopride, eticlopride]: the Ki at human DRD3 (eticlopride, in Figure 4A) was 0.12 nM.

Values taken from PMC10979501, “Protein Structure-Based Organic Chemistry-Driven Ligand Design from Ultralarge Chemical Spaces” (ACS Central Science, 2024).
